Measured values: patent US9428519B2, “Acylated derivative of homoharringtonine, preparation method therefor, and application thereof” (HANGZHOU BENSHENG PHARMACEUTICAL CO., LTD., priority 2011, dated 2016)
Values after ≈ are worked out from the molar mass of the structure shown. “Also recorded” adds a separate entry of the source.

Tests used:
[1] = tested on: Hep-2 (laryngeal carcinoma); experiment: MTT growth inhibition of human solid tumor cells, 72 h; type: cell-based; conditions: Homo sapiens, HEp-2
Procedure, shortened: (§1)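 Viability by MTT relative to untreated cells (100%) after 72 h drug exposure; 4000 cells/well preincubated 24 h in 10% FBS DMEM.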

[2] = tested on: CNE (nasopharyngeal carcinoma cell); experiment: as above; type: cell-based; conditions: Homo sapiens, MTT
Procedure, shortened: as §1

[3] = tested on: RKO (human colon adenocarcinoma cell); experiment: as above; type: cell-based
Procedure, shortened: as §1

[4] = tested on: Huh7 (human liver cancer cell); experiment: as above; type: cell-based; conditions: Homo sapiens, Huh-7
Procedure, shortened: as §1

[5] = tested on: SK-OV-3 (ovarian cancer cell); experiment: as above; type: cell-based
Procedure, shortened: as §1

[6] = tested on: Hela (human cervical cancer cell); experiment: as above; type: cell-based
Procedure, shortened: as §1

PC-3 (prostate cancer) = experiment: as above; type: cell-based
Procedure, shortened: as §1

[7] = tested on: Becap37 (human breast cancer cell); experiment: as above; type: cell-based; conditions: Homo sapiens
Procedure, shortened: as §1

MG63 (osteosarcoma) = experiment: as above; type: cell-based
Procedure, shortened: as §1

A549 (human lung cancer) = experiment: as above; type: cell-based; conditions: Homo sapiens, A549
Procedure, shortened: as §1

[8] = tested on: U87 MG (malignant glioma cell); experiment: as above; type: cell-based; conditions: Homo sapiens, U-87 MG
Procedure, shortened: as §1

[9] = tested on: CaES-17 (esophageal cancer cell); experiment: as above; type: cell-based; conditions: Homo sapiens, CaEs17
Procedure, shortened: as §1

[10] = tested on: PANC-1 (pancreatic cancer); experiment: as above; type: cell-based
Procedure, shortened: as §1

[11] = tested on: MGC 803 (human gastric cancer cell); experiment: as above; type: cell-based; conditions: Homo sapiens, MGC-803
Procedure, shortened: as §1

[12] = Body weight and toxicity in tumor-bearing NOD/SCID mice; type: in vivo; conditions: for Weight (g) Final / Weight (g) Initial: three times a day, 10 days; for Weight (g) Initial: initial (Day 0)
Protocol: (§2) Animal: NOD/SCID mice (multiple immunodeficiency mice), 8 weeks, female, purchased from Shanghai Laboratory Animal Center of Chinese Academy of Sciences, China.
(§3) BS-HH-002, wherein BS-HH-002-0.1 indicates a dosage of 0.1 mg/kg each time, and BS-HH-002-0.3 indicates a dosage of 0.3 mg/kg each time.
(§4) Under sterile conditions, the above tumor cells in the logarithmic growth phase are collected and injected in an amount of 5×10^7/0.2 ml/mice (cell viability>95%) by subcutaneous injection into the right subaxillary of NOD/SCID mice, thus establishing an NOD/SCID mice model bearing transplanted tumor of leukemia. The mice are administered on the third day after the inoculation, wherein the experimental groups are intragastrically administered in an experimentally designed amount and the negative control group is intragastrically administered with sterile water. Each mouse is intragastrically administered three times a day in 0.4 ml each time, at 8:00, 14:00 and 20:00 with 6-hour intervals, and is successively administered for 10 days. The day before administration is Day 0 and the weight and tumor size are determined approximately every 5 days to produce a dynamic plot on weight and tumor growth. On Day 31, the mice are dissected and the tumors are taken out and weighed. The tumor inhibition rate (%) after the application of medicament is determined based on the tumor inhibition rate of the control group being zero.
(§5) The values determined are presented as mean±standard error (M±SD). The experimental data for each group are analyzed by the One-way ANOVA method of SPSS 18.0 Statistical Software, and p<0.05 is deemed as having statistically significant difference.

[13] = tested on: Kasumi-1 transplanted tumor of leukemia; experiment: Inhibition of transplanted tumor of leukemia in NOD/SCID mice; type: in vivo; conditions: for Mass of tumor / Tumor Inhibition rate (%): Kasumi-1 in NOD/SCID mice, three times a day, 10 days, Day 31
Protocol: Leukemia cell lines: Kasumi-1 (acute myeloid leukemia M2 type, AML-M2)
as §2, §3, §4, §5

COC(=O)C[C@](O)(CCCC(C)(C)OC(C)=O)C(=O)O[C@@H]1C(OC)=C[C@]23CCCN2CCc2cc4c(cc2[C@H]13)OCO4 [BS-HH-002, 6-acetylhomoharringtonine]
IC50 [1]: 0.0037 µg/mL (≈ 0.0063 µM) | IC90 [1]: > 16 µg/mL | IC50 [2]: 0.024 µg/mL (≈ 0.0408 µM) | IC90 [2]: > 16 µg/mL | IC50 ([3]; Homo sapiens, MTT): 0.002 µg/mL (≈ 0.0034 µM) | IC90 ([3]; Homo sapiens, MTT): 0.01 µg/mL (≈ 0.017 µM) | anti-RKO effect relative to homoharringtonine ([3]; vs HHT): substantially superior | IC50 [4]: 0.0021 µg/mL (≈ 0.00357 µM) | IC90 [4]: 0.018 µg/mL (≈ 0.0306 µM) | IC50 ([5]; Homo sapiens, SK-OV-3, MTT): 0.05 µg/mL (≈ 0.0851 µM) | IC90 ([5]; Homo sapiens, SK-OV-3, MTT): > 16 µg/mL | anti-SK-OV-3 effect relative to homoharringtonine ([5]; vs HHT): 2 fold | IC50 ([6]; Homo sapiens, HeLa, MTT): 0.0077 µg/mL (≈ 0.0131 µM) | IC90 ([6]; Homo sapiens, HeLa, MTT): 16 µg/mL (≈ 27.2 µM) | anti-Hela effect relative to homoharringtonine ([6]; vs HHT): more than 2.5 fold | IC50 (PC-3 (prostate cancer); Homo sapiens, MTT): 0.013 µg/mL (≈ 0.0221 µM) | IC90 (PC-3 (prostate cancer); Homo sapiens, MTT): > 16 µg/mL | anti-PC-3 effect relative to homoharringtonine (PC-3 (prostate cancer); vs HHT): more than 6 fold | IC50 [7]: 0.005 µg/mL (≈ 0.00851 µM) | IC90 [7]: 16 µg/mL (≈ 27.2 µM) | IC50 (MG63 (osteosarcoma); Homo sapiens, MG-63, MTT): 0.006 µg/mL (≈ 0.0102 µM) | IC90 (MG63 (osteosarcoma); Homo sapiens, MG-63, MTT): 0.42 µg/mL (≈ 0.715 µM) | anti-MG63 effect relative to homoharringtonine (MG63 (osteosarcoma); vs HHT): substantially superior | IC50 (A549 (human lung cancer)): 0.013 µg/mL (≈ 0.0221 µM) | IC90 (A549 (human lung cancer)): > 16 µg/mL | IC50 [8]: 0.002 µg/mL (≈ 0.0034 µM) | IC90 [8]: 0.012 µg/mL (≈ 0.0204 µM) | IC50 [9]: 0.02 µg/mL (≈ 0.034 µM) | IC90 [9]: > 16 µg/mL | IC50 ([10]; Homo sapiens, PANC-1, MTT): 0.012 µg/mL (≈ 0.0204 µM) | IC90 ([10]; Homo sapiens, PANC-1, MTT): > 16 µg/mL | anti-PANC-1 effect relative to homoharringtonine ([10]; vs HHT): more than 3 fold | IC50 [11]: 0.008 µg/mL (≈ 0.0136 µM) | IC90 [11]: 0.056 µg/mL (≈ 0.0953 µM) | Weight (g) Final ([12]; 0.1 mg/kg/time intragastric): 26.7 ± 1.92 g | Weight (g) Initial ([12]; 0.1 mg/kg/time intragastric): 21.48 ± 0.05 g | Weight (g) Final ([12]; 0.3 mg/kg/time intragastric): 27.45 ± 2.48 g | Weight (g) Initial ([12]; 0.3 mg/kg/time intragastric): 22.45 ± 0.13 g | toxic or side effect ([12]; 0.1 and 0.3 mg/kg each time): does not have any obvious toxic or side effect; also recorded: does not demonstrate an obvious toxicity | impact on animal weight ([12]; initial vs final weight): does not have substantial impact on animal weight | Mass of tumor ([13]; 0.1 mg/kg/time intragastric): 1.67 ± 0.36 g | Tumor Inhibition rate (%) ([13]; 0.1 mg/kg/time intragastric): 43.31% | Mass of tumor ([13]; 0.3 mg/kg/time intragastric): 1.60 ± 0.75 g | Tumor Inhibition rate (%) ([13]; 0.3 mg/kg/time intragastric): 45.74% | tumor inhibition effect on transplanted tumor of leukemia ([13]; NOD/SCID mice, FIG. 5 tumor growth curve): remarkable tumor inhibition effect | effect on weight of the transplanted tumor of leukemia ([13]; NOD/SCID mice, FIG. 6): substantially reduced | inhibition rate of transplanted tumor of leukemia ([13]; NOD/SCID mice, dosage of both 0.1 and 0.3 mg/kg): over 40%
